Reference: patent US7772216B2, “Protein kinase and phosphatase inhibitors and methods for designing them” (The Research Foundation of State University of New York, priority 2001, dated 2010)
Values joined by “and” are separate entries in the source; they are usually repeats but may differ in a detail not shown here. Equal values may be shown once. Read-outs that look alike come from different tables or passages of the source. Values belong to the compound of their own block, whether it stands above or below them. Starred links: 1 amine or outer side, 2 acyl side, 3 side chain; linkers in the order of their positions; H or OH if unused. Non-standard residues stand in square brackets, D forms with d. Residues, ends and D or L forms follow the SMILES beside them. X5 = O=C([C@H](CNS(=O)(=O)O)N[*:1])[*:2]; X6 = NS(=O)(=O)CC[C@H](N[*:1])C(=O)[*:2]; X3 = O=C([C@H](CCB(O)O)N[*:1])[*:2]

What was measured:
[1] = target: EGFRTK (Homo sapiens, UniProt P00533); experiment: EGFRTK inhibition; format: biochemical; conditions: % inhibition at 10 micromolar compound
From the text: (§1) Blanks for a particular enzyme indicate that inhibition was not found.

[2] = target: pp60^c-src (Homo sapiens, UniProt P12931); experiment: Cellular Mimetic Src assay (RR-SRC phosphorylation); conditions: for Ki: Table IV; for inhibition at 1000 µM: read-out: % Inhibition of 2 mM RR-src at Inhibitor Concentration (1 mM)
[3] = target: T1, PTP-1B (Homo sapiens, UniProt P18031); experiment: PTP-1B inhibition; format: biochemical; conditions: % inhibition at 10 micromolar compound
T1 sequence (P18031 1-435): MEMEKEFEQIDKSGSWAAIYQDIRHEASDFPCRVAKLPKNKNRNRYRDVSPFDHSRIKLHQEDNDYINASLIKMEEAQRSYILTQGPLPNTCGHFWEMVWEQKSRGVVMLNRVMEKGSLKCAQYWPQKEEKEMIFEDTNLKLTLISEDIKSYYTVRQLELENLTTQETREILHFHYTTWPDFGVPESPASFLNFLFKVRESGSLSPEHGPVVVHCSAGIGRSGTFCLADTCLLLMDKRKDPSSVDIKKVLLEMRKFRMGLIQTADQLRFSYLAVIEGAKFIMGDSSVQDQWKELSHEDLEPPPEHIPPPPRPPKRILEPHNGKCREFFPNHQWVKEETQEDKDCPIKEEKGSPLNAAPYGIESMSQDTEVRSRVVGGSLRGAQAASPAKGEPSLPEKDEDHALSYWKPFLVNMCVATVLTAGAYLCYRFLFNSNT
From the text: as §1

[4] = target: T2, PKA (Homo sapiens, UniProt P17612); experiment: Cellular Mimetic PKA assay; format: biochemical; conditions: 2000 μM inhibitor, C
From the text: (§2) The boronic acid inhibitors 21-24 have two Arg's in their sequence also and therefore will bind to the phosphocellulose paper in addition to Kemptamide (although not as consistently or completely due to one less positive charge). Consequently, when analyzed as inhibitors, the amount of phosphorylated Kemptamide produced was not only counted, but also the amount of phosphorylated inhibitor simultaneously produced (e.g. see 26 below). The net result is that distorted IC50 curves are obtained which show net “stimulation” at higher inhibitor concentrations in some cases. […] The underlying substrate behavior of these “inhibitors” makes an accurate measurement of their inhibition potency impossible with the current assay. However, it does appear from the data that homologating the boronic acid functionality out with only CH2 groups (homologations with boronic acid non-peptide Src inhibitors may also be carried out) decreases the binding affinity and ability to function as a substrate.
Phosphorylated Kemptamide is SEQ. ID. No. 6. Phosphorylated 22 is SEQ. ID. No. 4. […] The graphs show their respective rates and levels of phosphorylation with the typical loss of initial velocity kinetics with time (due to substrate depletion and end product inhibition), analogous to a standard L-Ser substrate such as Kemptamide. The comparison of 21 to 22 shown was done in the same assay run, at identical boronic acid substrate concentrations, and with identical Cellular Mimetic assay solutions so that the cpm's could be directly compared. […] That the boronic acid moiety would be phosphorylated by PKA was surprising, but it is even more surprising that the phosphonic-boronic acid mixed anhydride produced (e.g. 26) was stable enough to survive the pH 7.2/37° C. assay incubation and then be isolated by binding to phosphocellulose paper after acid quenching of the reaction with 10% TCA and washing the phosphocellulose paper with 25 mM phosphoric acid (3×). An STN substructure search was run on mixed anhydrides of phosphoric and boronic acids and found only three references to experiments and theoretical calculations for the analogous putative (but not proven) anhydride formed from boric acid and phosphoric acid as a solid surface impregnated catalyst for the partial oxidation of ethane to acetaldehyde at 823° K. (Zhanpeisov & Otsuka, 1992, Otsuka et al., 1992, Murakami et al., 1990). However, this highly unusual anhydride has never before been synthesized free of a solid surface, isolated, or characterized. Thus, this is a novel enzymatic reaction and chemical entity with interesting possibilities for protein kinase inhibitor designs.

[5] = target: T2, PKA; experiment: Literature Mimetic PKA assay; format: biochemical; conditions: for IC50: Literature Mimetic; for Ki: Literature Mimetic (L) conditions, pentapeptide PKA inhibitors
From the text: as §2

[6] = read-out: % Inhibition of 2 mM RR-src at Inhibitor Concentration (100 μM)

Sequence of pp60^c-src (P12931 whole entry): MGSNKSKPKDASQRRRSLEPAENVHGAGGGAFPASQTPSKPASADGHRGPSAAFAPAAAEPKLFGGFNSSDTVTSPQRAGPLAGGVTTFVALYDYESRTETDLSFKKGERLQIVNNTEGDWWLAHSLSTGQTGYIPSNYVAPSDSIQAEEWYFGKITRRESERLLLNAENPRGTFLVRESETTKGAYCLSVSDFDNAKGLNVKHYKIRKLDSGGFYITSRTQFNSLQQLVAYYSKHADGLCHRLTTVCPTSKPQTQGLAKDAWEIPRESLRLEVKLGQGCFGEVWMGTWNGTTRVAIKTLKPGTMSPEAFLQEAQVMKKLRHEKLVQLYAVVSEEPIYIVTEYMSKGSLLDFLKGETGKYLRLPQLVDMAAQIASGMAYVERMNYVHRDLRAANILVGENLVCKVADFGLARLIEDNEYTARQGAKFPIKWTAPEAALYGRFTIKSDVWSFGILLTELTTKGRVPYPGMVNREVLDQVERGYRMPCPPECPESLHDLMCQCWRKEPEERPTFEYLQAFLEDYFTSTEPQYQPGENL
Sequence of EGFRTK (P00533 25-1210): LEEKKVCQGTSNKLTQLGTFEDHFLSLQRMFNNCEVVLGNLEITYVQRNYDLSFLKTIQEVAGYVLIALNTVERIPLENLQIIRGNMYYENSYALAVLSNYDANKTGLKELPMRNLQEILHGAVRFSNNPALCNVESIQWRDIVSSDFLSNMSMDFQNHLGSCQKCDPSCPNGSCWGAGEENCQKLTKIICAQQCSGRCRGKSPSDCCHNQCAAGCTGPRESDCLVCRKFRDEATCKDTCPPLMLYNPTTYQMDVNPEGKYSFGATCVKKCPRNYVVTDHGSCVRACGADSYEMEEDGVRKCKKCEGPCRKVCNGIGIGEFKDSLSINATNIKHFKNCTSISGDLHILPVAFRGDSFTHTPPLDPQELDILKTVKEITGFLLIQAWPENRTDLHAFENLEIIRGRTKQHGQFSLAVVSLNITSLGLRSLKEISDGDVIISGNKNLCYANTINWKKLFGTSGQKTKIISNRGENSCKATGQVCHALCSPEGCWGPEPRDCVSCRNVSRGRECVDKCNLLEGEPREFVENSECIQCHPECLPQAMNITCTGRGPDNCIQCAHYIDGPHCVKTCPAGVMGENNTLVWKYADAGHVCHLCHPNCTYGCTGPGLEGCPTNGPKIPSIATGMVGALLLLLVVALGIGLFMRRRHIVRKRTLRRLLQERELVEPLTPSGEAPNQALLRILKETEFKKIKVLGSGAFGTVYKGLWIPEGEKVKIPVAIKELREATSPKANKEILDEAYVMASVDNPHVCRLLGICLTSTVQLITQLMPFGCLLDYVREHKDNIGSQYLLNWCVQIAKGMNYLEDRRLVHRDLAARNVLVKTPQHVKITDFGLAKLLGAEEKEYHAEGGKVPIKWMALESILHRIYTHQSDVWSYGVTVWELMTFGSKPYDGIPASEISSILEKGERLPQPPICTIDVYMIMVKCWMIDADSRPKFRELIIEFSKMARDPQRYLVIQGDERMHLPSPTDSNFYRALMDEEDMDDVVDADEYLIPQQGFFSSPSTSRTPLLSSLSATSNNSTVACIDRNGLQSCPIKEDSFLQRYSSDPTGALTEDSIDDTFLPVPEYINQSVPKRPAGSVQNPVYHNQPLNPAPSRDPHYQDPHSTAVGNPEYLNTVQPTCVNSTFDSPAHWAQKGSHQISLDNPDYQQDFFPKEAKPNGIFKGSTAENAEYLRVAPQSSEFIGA

- EGFRTK @ 10 μm [1]: 19%
Compound: O=C(N[C@H](c1ccccc1)[C@H](O)c1ccccc1)c1cc2cc(F)ccc2[nH]1 [Compound 1cc]

- % Inhibition at 100 μM (std. dev.) ([2]; Table IX, hydroxynaphthalene derivatives and published inhibitors): 30 (+/−15) %
- inhibition at 100 µM ([2]; read-out: % Inhibition at 100 μM (std. dev.)): 30%
Compound: N=c1oc2c(O)cccc2cc1C(=O)Nc1cccc(O)c1 [Iminochromene 9TA, reference compound]

- EGFRTK @ 10 μm [1]: 12%
Compound: COc1cccc([C@H](C)NC(=O)c2cc3cc(F)ccc3[nH]2)c1 [Compound 1aa]

- inhibition at 100 µM [2, 6]: 14%
Compound: OB(O)c1cccc(-c2ccccc2)c1

- inhibition at 100 µM ([2]; read-out: % Inhibition of 2 mM RR-src at Inhibitor Concentration (100 μM), Table V, inhibitor 100 μM): 41%
Compound: Oc1cc(O)cc(/C=C/c2ccc(O)c(O)c2)c1 [drawing 66, piceatannol, reference compound]

- EGFRTK @ 10 μm [1]: 12%
Compound: Cc1ccccc1CNC(=O)c1cc2cc(F)ccc2[nH]1 [Compound 1ffff]

- EGFRTK @ 10 μm [1]: 25%
Compound: O=C(NCc1ccc(O)c(O)c1)c1cc2cc(F)ccc2[nH]1 [Compound 1gggg]

- PTP-1B @ 10 μm [3]: 13%
Compound: O=C(NCc1ccc(F)cc1)c1cc2cc(F)ccc2[nH]1 [Compound 1uuu]

- inhibition at 500 µM ([2]; read-out: % Inhibition of 2 mM RR-src at Inhibitor Concentration (500 μM)): 13%
Compound: COC(=O)c1cc2ccc(B(O)O)cc2cn1

- EGFRTK @ 10 μm [1]: 19%
Compound: O=C(NCc1ccccc1)c1cc2cc(F)ccc2[nH]1 [Compound 1bb]

- inhibition at 100 µM [2, 6]: 45%
Compound: O=C(Nc1cccc(O)c1)c1ccc2cc(O)ccc2c1

- EGFRTK @ 10 μm [1]: 12%
Compound: O=C(NCc1cc(OCc2ccccc2)cc(OCc2ccccc2)c1)c1cc2cc(F)ccc2[nH]1 [Compound 1iiii]

- EGFRTK @ 10 μm [1]: 30%
Compound: O=C(NCc1ccc(Br)cc1)c1cc2cc(F)ccc2[nH]1 [Compound 1kkkk]

- EGFRTK @ 10 μm [1]: 41%
Compound: O=C(N[C@@H](c1ccccc1)[C@@H](O)c1ccccc1)c1cc2cc(F)ccc2[nH]1 [Compound 1dd]

- EGFRTK @ 10 μm [1]: 16%
Compound: COc1ccc(CNC(=O)c2cc3cc(F)ccc3[nH]2)cc1 [Compound 1ee]

- inhibition at 2000 µM ([4]; 0 h preincubation): 16%
- % sti (stimulation) ([4]; 4 h preincubation): 5%
- inhibition at 2000 µM ([4]; 4 h preincubation): 5%
- IC50 ([5]; IC50 μM (cond. L, 4 h preincubation), 4 h preincubation, * very distorted IC50 curve): 133 µM
- IC50 ([5]; 0 h preincubation, read-out: IC50 μM (cond. L, 0 h preincubation)): 398 µM
Compound: CC[C@H](C)[C@H](NC(=O)[C@H](CCB(O)O)NC(=O)CNC(=O)[C@H](CCCNC(=N)N)NC(=O)[C@H](CCCNC(=N)N)NC(C)=O)C(N)=O [Compound 23] (Ac-RRG[X3]I-NH2)

- IC50 [2]: 950 µM
- Ki [2]: ~554 µM and 554 µM
- inhibition at 100 µM [2, 6]: 13%
- inhibition at 1000 µM [2]: 59%
Compound: OB(O)c1ccc2ccccc2c1 [Compound 27, 2-naphthalene boronic acid]

- % Inhibition of 2 mM RR-src at Inhibitor Concentration (100 μM) ([2]; Table V, inhibitor 100 μM): 30 (100 μM) %
- inhibition at 100 µM [2, 6]: 30%
Compound: N=c1oc2c(O)cccc2cc1C(=O)Nc1cccc(O)c1 [Compound 50, reference compound]

Compound: CC[C@H](C)[C@H](NC(=O)[C@H](CNS(=O)(=O)O)NC(=O)CNC(=O)[C@H](CCCNC(=N)N)NC(=O)[C@H](CCCNC(=N)N)NC(C)=O)C(N)=O [Compound 8] (Ac-RRG[X5]I-NH2)
- Ki ([5]; Ki): 0.16 µM

- EGFRTK @ 10 μm [1]: 24%
Compound: O=C(NCc1cccc(I)c1)c1cc2cc(F)ccc2[nH]1 [Compound 1ff]

- IC50 [2]: 1600 µM
- Ki [2]: 963 µM
- inhibition at 1000 µM [2]: 31%
Compound: O=S(=O)(O)Nc1ccc2ccccc2c1 [Compound 28]

- Ki ([5]; read-out: Ki): 300 µM
Compound: CC[C@H](C)[C@H](NC(=O)[C@H](CCS(N)(=O)=O)NC(=O)CNC(=O)[C@H](CCCNC(=N)N)NC(=O)[C@H](CCCNC(=N)N)NC(C)=O)C(N)=O [Compound 7] (Ac-RRG[X6]I-NH2)
